Assay results from US10449216B2, “Modulating drug effects against metabotropic glutamate receptor with extracellular calcium” (GEORGIA STATE UNIVERSITY RESEARCH FOUNDATION, INC., priority 2013, dated 2019).
“Also recorded” adds a separate entry of the source. Where two headings read alike, the source gives them in different places.

Key:
mGluR1 [1] = target: mGluR1 (Rattus norvegicus, UniProt P23385); conditions: mGluR1, Sp. Rn; cited from earlier work
mGluR5 [2] = target: T1, mGluR5 (Rattus norvegicus, UniProt P31424); conditions: mGluR5, Sp. Rn; cited from earlier work
mGluR1 [3] = target: mGluR1 (Homo sapiens, UniProt Q13255); conditions: mGluR1, Sp. Hs; cited from earlier work
WT mGluR1α = target: T2, WT mGluR1α (Rattus norvegicus, UniProt P23385); experiment: Single cell Fura-2 [Ca^2+]i response in HEK293 cells transiently transfected with WT mGluR1α; format: cell-based; conditions: for Max. Res. to Ro 67-4853: normalized to maximal response of WT mGluR1α to L-Glu; for EC50: read-out: EC50 of Ro 67-4853
T2 construct: expressed in transfected cells; host or cells: HEK293
Method: The methods for measuring [Ca^2+]i responses were as described above. In the presence of (s)-MCPG, the cells were incubated with 0.5 mM (s)-MCPG in a saline buffer for 30 more minutes after Fura-2 loading.
Fura-2AM was used for monitoring [Ca^2+]i in real time as described above. […] Cells loaded with Fura-2AM were mounted onto a chamber perfused with saline buffer.

mGluR5 [4] = target: mGluR5 (Homo sapiens, UniProt P41594); conditions: mGluR5, Sp. Hs; cited from earlier work
mGluR5 [5] = target: T1, mGluR5; experiment: Intracellular Ca^2+ response/oscillation in mGluR5 transfected HEK293 cells; format: cell-based; set-up: expressed in transfected cells; host or cells: HEK293; conditions: for Percentage of cells with oscillation as a response to L-Glu: low concentration of L-Glu
Method: HEK293 cells were fed on a Dulbecco's Modified Eagle Medium (DMEM) and 10% fetal bovine serum (Invitrogen) and cultured at 37° C. in a humidified incubator with 5% CO2. One day before transfection, HEK293 cells were grown on 22×44 mm coverslips and then were transfected with mGluR5 plasmid (received as a gift from Dr. Randy Hall, Emory University, Atlanta, Ga.) with the aid of lipofectamine 2000 (Invitrogen). mGluR5 transfected HEK293 cells were grown for 48 hours and then loaded with 4 µM Fura-2 AM in loading buffer containing 10 mM HEPES (pH 7.4), 140 mM NaCl, 5 mM KCl, 0.55 mM MgCl2 for 30 minutes at 37° C. The coverslips were then mounted in a bathing chamber on the stage of a fluorescence microscope. […] The ratio of fluorescence emitted at 510 nm resulting from excitation at 340 or 380 nm was analyzed to obtain the [Ca^2+]i response as a function of changes in [Ca^2+]o.
HEK293 cells were cultured and transfected as described above. Intracellular Ca^2+ concentration was recorded using the method as described previously. […]

mGluR1α D322I = target: T3, mGluR1α D322I (Rattus norvegicus, UniProt P23385, D322I); experiment: Single cell Fura-2 [Ca^2+]i response in HEK293 cells transfected with mGluR1α variant D322I; format: cell-based; conditions: HEK293, read-out: Maximal Response to L-Quis, D322I, normalized to maximal response of WT mGluR1α to L-Glu
T3 construct: expressed in transfected cells; host or cells: HEK293

mGluR1α E325I = target: T4, mGluR1α E325I (Rattus norvegicus, UniProt P23385, E325I); experiment: Single cell Fura-2 [Ca^2+]i response in HEK293 cells transfected with mGluR1α variant E325I; format: cell-based; conditions: HEK293, read-out: Maximal Response to L-Quis, E325I, normalized to maximal response of WT mGluR1α to L-Glu
T4 construct: expressed in transfected cells; host or cells: HEK293

mGluR1α D318I = target: T5, mGluR1α D318I (Rattus norvegicus, UniProt P23385, D318I); experiment: [^3H]-L-Quis binding to membranes of HEK293 cells expressing D318I; conditions: hypotonic buffer
T5 construct: expressed in transfected cells; host or cells: HEK293
Method: HEK293 cells transiently transfected with wild type mGluR1α or its mutants were maintained in a 5% CO2 37° C. incubator for an additional 48 hours as before. Cells were then collected in ice cold hypotonic buffer (20 mM HEPES, 100 mM NaCl, 5 mM MgCl2, 5 mM KCl, 0.5 mM EDTA, and 1% protease inhibitors at pH 7.0-7.5). The cell pellet was washed twice more using hypotonic buffer to remove the L-Glu in the cellular debris. The crude membrane protein (100 μg) was mixed with 30 nM [^3H]-L-Quis in 100 μL of hypotonic buffer. The nonspecific binding was determined by measuring bound [^3H]-L-Quis in the presence of 200 μM L-Glu. […] The reaction mixtures were incubated on ice for at least 1 hour, and the membrane-bound [^3H]-L-Quis was captured on filter paper using a Brandel cell harvester under vacuum. The filter paper was then transferred to scintillation fluid, and [^3H]-L-Quis was detected using a Beckman LS 6500 multi-purpose scintillation counter.

T1 sequence (P31424 21-1203): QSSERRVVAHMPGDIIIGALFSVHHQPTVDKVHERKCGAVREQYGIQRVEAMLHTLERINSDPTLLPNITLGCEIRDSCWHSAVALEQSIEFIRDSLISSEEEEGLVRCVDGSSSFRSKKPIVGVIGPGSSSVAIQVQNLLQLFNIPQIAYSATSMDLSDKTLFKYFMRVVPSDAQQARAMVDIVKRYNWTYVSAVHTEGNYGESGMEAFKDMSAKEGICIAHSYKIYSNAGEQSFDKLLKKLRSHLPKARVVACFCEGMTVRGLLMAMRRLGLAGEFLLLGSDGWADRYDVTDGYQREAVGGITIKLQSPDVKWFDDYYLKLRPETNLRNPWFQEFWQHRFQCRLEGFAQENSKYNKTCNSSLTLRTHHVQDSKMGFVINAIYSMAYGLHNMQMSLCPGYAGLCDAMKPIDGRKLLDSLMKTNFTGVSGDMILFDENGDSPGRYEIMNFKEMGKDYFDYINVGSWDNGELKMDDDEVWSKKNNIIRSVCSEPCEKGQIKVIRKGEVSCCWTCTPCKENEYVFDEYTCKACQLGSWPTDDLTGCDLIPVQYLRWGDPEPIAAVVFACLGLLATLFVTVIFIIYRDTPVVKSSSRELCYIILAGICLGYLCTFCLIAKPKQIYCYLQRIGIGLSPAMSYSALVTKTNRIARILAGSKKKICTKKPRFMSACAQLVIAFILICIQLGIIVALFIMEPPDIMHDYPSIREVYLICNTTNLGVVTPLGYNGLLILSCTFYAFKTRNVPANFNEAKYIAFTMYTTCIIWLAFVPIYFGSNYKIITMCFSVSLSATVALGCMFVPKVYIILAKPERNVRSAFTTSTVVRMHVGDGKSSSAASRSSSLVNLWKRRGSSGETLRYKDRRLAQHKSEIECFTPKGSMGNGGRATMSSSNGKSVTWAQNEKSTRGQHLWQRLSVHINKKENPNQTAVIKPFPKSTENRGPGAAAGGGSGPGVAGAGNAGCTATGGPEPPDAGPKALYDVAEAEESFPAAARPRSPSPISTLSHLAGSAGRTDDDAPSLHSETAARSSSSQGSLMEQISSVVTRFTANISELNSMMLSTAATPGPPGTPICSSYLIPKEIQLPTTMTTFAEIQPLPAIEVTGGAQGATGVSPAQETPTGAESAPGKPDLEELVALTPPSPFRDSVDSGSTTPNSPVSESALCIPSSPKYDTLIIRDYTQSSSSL
Sequence of mGluR5 (Homo sapiens, UniProt P41594) (P41594 21-1212): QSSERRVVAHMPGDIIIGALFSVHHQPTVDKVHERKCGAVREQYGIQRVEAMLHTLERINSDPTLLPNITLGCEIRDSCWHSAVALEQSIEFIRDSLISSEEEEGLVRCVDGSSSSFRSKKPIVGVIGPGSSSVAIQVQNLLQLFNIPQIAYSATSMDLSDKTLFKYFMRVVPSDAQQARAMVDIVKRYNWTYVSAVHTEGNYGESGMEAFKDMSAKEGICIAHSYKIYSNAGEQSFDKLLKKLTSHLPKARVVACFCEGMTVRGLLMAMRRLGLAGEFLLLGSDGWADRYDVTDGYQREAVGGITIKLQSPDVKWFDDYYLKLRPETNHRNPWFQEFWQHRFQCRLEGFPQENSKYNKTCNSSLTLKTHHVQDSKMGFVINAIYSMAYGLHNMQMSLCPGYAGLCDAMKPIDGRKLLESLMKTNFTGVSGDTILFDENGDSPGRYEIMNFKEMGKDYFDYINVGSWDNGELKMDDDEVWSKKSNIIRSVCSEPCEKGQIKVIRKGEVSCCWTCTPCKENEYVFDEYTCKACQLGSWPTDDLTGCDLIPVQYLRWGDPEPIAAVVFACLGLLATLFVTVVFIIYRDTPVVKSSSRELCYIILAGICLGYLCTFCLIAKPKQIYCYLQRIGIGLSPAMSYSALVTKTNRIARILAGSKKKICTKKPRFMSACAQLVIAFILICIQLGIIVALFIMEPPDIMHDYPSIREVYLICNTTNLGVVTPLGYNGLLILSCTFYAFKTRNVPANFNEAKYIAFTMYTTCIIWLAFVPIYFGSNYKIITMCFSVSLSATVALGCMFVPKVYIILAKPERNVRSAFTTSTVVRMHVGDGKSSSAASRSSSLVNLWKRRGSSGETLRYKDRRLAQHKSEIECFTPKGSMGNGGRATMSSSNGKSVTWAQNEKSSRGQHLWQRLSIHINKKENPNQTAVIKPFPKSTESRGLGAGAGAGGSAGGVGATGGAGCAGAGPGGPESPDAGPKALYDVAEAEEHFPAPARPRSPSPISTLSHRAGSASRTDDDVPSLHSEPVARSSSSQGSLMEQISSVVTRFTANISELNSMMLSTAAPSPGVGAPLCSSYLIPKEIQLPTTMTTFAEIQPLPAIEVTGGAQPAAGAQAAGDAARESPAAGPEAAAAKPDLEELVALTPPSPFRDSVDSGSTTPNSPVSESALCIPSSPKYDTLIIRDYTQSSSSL
Sequence of mGluR1 (Homo sapiens, UniProt Q13255) (Q13255 19-1194): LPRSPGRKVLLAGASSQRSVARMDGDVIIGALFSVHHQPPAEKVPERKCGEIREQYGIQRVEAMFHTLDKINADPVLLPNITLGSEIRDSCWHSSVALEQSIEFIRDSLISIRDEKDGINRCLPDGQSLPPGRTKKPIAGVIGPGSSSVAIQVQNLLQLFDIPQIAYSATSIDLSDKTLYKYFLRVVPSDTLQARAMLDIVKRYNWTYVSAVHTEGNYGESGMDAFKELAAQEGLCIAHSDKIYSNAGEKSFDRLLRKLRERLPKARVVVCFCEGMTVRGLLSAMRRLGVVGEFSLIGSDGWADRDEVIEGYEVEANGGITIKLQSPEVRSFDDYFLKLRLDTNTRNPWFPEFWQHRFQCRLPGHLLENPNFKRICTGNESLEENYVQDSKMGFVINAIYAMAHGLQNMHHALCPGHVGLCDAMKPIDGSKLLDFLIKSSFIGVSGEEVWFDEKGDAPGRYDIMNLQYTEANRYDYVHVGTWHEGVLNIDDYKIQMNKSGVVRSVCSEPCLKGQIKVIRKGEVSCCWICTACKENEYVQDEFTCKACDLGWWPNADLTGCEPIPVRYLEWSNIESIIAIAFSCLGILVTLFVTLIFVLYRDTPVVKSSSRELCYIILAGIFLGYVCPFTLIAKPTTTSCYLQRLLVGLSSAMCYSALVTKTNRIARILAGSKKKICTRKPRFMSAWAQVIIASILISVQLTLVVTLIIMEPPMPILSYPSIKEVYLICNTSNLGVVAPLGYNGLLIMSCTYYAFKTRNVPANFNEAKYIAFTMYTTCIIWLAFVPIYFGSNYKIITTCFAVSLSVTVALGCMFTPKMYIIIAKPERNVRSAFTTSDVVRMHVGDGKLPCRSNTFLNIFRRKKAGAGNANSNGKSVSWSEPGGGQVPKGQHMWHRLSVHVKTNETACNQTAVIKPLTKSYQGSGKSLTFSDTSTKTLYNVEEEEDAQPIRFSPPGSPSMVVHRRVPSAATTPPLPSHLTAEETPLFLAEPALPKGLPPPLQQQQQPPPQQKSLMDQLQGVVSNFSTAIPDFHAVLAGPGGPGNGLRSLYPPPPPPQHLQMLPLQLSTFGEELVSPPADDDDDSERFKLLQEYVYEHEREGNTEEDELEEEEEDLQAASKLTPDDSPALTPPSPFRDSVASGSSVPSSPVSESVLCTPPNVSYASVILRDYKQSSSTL
Sequence of mGluR1 (Rattus norvegicus, UniProt P23385) (P23385 19-1199): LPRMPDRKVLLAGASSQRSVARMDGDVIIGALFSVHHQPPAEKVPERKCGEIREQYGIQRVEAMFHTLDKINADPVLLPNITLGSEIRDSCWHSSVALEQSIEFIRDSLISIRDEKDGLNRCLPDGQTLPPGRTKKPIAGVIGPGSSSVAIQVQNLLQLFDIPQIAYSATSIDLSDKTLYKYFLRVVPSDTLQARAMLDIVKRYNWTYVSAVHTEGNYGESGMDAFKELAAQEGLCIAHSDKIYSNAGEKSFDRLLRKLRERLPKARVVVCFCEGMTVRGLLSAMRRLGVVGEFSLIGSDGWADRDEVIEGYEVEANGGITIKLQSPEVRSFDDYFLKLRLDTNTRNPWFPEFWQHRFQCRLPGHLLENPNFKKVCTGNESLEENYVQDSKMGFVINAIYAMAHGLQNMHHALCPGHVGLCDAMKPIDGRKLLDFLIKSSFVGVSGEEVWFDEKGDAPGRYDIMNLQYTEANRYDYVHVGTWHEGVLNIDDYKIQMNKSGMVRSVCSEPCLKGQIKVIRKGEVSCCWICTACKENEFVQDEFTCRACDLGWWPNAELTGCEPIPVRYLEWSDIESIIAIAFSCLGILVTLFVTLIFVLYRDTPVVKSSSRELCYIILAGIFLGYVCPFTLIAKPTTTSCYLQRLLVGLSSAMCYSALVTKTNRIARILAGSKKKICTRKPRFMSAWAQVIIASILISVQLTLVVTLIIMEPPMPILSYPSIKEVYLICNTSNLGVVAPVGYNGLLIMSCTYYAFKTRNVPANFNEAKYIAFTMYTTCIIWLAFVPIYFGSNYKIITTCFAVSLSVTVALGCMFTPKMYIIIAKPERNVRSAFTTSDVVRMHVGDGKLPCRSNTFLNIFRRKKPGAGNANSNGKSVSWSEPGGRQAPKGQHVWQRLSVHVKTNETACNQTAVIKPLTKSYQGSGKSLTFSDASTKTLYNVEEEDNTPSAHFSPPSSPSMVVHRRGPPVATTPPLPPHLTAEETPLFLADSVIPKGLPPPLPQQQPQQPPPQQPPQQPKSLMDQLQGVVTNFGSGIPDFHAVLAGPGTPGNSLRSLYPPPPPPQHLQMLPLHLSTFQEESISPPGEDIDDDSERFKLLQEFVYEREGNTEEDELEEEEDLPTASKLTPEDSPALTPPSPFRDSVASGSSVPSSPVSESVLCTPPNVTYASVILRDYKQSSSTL
T2 sequence (P23385 19-1199): as above
T3 sequence (P23385 19-1199 D322I): as the sequence (P23385 19-1199) above, with D304I counted along it
T4 sequence (P23385 19-1199 E325I): as the sequence (P23385 19-1199) above, with E307I counted along it
T5 sequence (P23385 19-1199 D318I): as the sequence (P23385 19-1199) above, with D300I counted along it

NC(C(=O)O)c1cc(O)cc(O)c1 (stereo not shown) [3,5-DHPG]
Affinity (pKi) (mGluR1 [1]): 5.8 pKi
Affinity (pIC50) (mGluR5 [2]): 5.4 pIC50

CCCOC(=O)c1[nH]c(C)c(C(=O)OC(C)C(C)(C)C)c1C (stereo not shown) [3,5-dimethyl PPP]
Affinity (pIC50) (mGluR1 [1]): 7.8 pIC50

Cc1cc(C(=O)O)sc1C(N)C(=O)O (stereo not shown) [3-MATIDA]
Affinity (pIC50) (mGluR1 [1]): 5.2 pIC50

N[C@@]1(C(=O)O)CC[C@@H](C(=O)O)C1 [(1S,3R)-ACPD]
Affinity (pIC50) (mGluR5 [2]): 5.7 pIC50

N[C@H](C(=O)O)c1cccc(O)c1 [(S)-3HPG]
Affinity (pIC50) (mGluR1 [1]): 4.9 pIC50
Affinity (pIC50) (mGluR5 [2]): 5 pIC50

N[C@H](C(=O)O)c1ccc(C(=O)O)c(O)c1 [(S)-4C3HPG]
Affinity (pKi) (mGluR1 [3]): 5.8-6.0 pKi
Affinity (pIC50) (mGluR5 [2]): 5.6 pIC50

N[C@H](C(=O)O)c1ccc(C(=O)O)cc1 [(S)-4CPG]
Affinity (pKi) (mGluR1 [1]): 5.4 pKi
Affinity (pIC50) (mGluR5 [2]): 4.6 pIC50

N[C@H](C(=O)O)C12CC(C(=O)O)(C1)C2 [(S)-(+)-CBPG]
Affinity (pIC50) (mGluR1 [1]): 4.2 pIC50

N[C@H](C(=O)O)C12CC(c3nn[nH]n3)(C1)C2 [(S)-TBPG]
Affinity (pIC50) (mGluR1 [1]): 4.2 pIC50

C[C@@](N)(C(=O)O)c1ccc(C(=O)O)cc1 [(s)-MCPG, (S)-α-Methyl-4-carboxyphenylglycine]
Inhibition of activation of mGluR1α by L-Glu (WT mGluR1α; 1.5 mM (s)-MCPG, 5 μM L-Glu): entirely blocks
Inhibition of responsiveness of mGluR1α to [Ca^2+]o (WT mGluR1α; 2.0 mM MCPG, 5 mM [Ca^2+]o): does not completely inhibit
Affinity (pKi) (mGluR1 [1]): 3.8 pKi
Affinity (pIC50) (mGluR5 [2]): 3.7 pIC50

CN(C)c1ccnc2sc3c(=O)n(N4CCCCCC4)cnc3c12 [A841720]
Affinity (pIC50) (mGluR1 [3]): 8 pIC50

CN(C)c1nc(N)c(C(=O)Nc2ccccn2)nc1Cl [ACDPP]
Affinity (pIC50) (mGluR5 [4]): 6.9 pIC50

O=C(c1ccc(F)cc1)N1CCC[C@H](c2nc(-c3ccc(F)cc3)no2)C1 [ADX-47273]
Affinity (pIC50) (mGluR5 [2]): 6.5 pIC50

NC1(C(=O)O)CCc2cc(C(=O)O)ccc21 (stereo not shown) [AIDA]
Affinity (pKi) (mGluR1 [1]): 4 pKi
Affinity (pA2) (mGluR1 [3]): 4.2 pA2

C=C1C[C@@H]2COC(=O)[C@]2(Cc2ccc3ccccc3c2)C1 [BAY 367620]
Affinity (pIC50) (mGluR1 [1]): 6.8-8.0 pIC50

COc1cc(-c2nc3ccccc3o2)ccc1CC#N [BOMA]
Affinity (pKi) (mGluR5 [4]): 8.5 pKi

NC(C(=O)O)c1cc(O)ccc1Cl (stereo not shown) [CHPG]
Affinity (pIC50) (mGluR5 [4]): 3.4 pIC50

N[C@H](C(=O)O)C1[C@@H](C(=O)O)[C@@H]1C(=O)O (stereo partly shown) [DCG-IV]
Affinity (pKi) (mGluR1 [1]): 4.1 pKi
Affinity (pIC50) (mGluR5 [2]): 4.7 pIC50

Fc1cccc(/C=N/N=C/c2cccc(F)c2)c1 [DFB]
Affinity (pIC50) (mGluR5 [4]): 5.6-8.5 pIC50

CCCOC(=O)c1[nH]c(C)c(C(=O)O[C@@H](C)C(C)(C)C)c1C [DM-PPP]
Affinity (pIC50) (mGluR1 [1]): 7.8 pIC50

CCn1c(C)nc(N2CCc3ccccc3CC2)c(C#N)c1=O [EM-TBPC]
Affinity (pIC50) (mGluR1 [1]): 6.9 pIC50

N[C@H](C(=O)O)[C@H]1C[C@@H]1C(=O)O [L-CCG-I]
Affinity (pKi) (mGluR1 [1]): 5.6 pKi
Affinity (pIC50) (mGluR5 [2]): 5.8 pIC50

N[C@@H](CCC(=O)O)C(=O)O [L-Glu, L-glutamic acid]
Percentage of cells with oscillation as a response to L-Glu (mGluR5 [5]; 0.5 or 1.8 mM extracellular Ca^2+): more than 50%
Percentage of cells with oscillation as a response to L-Glu (mGluR5 [5]; without extracellular Ca^2+): less than 10%

N[C@@H](Cn1oc(=O)[nH]c1=O)C(=O)O [L-Quis, L-Quisqualate]
Emax (WT mGluR1α; HEK293, read-out: Maximal Response to L-Quis): 37 ± 4%
Emax (mGluR1α D322I; [Ca^2+]o 0 mM): 80 ± 16%
Emax (mGluR1α D322I; [Ca^2+]o 1.8 mM): 96 ± 21%
Emax (mGluR1α E325I; [Ca^2+]o 0 mM): 60 ± 8%
Emax (mGluR1α E325I; [Ca^2+]o 1.8 mM): 88 ± 8%
[^3H]-L-Quis binding to the mutant (mGluR1α D318I): eliminates L-Quis-binding
Affinity (pIC50) (mGluR5 [2]): 7.5 pIC50
mGluR5 response initiated by L-Quis (mGluR5 [5]; 0 mM Ca^2+ bath solution): almost could not initiate any mGluR5 response; also recorded: hardly showed any response
Percentage of cells with L-Quis-triggered response (mGluR5 [5]; absence of extracellular Ca^2+ addition): less than 20%
Percentage of cells with L-Quis-triggered response (mGluR5 [5]; with addition of extracellular Ca^2+, 5 nM L-Quis): more than 60%

Cc1cc(C(=O)O)ccc1[C@H](N)C(=O)O [LY367385]
Affinity (pKi) (mGluR1 [1]): 5.9 pKi
Affinity (pIC50) (mGluR1 [3]): 5.1 pIC50

COc1ccc(Nc2ncnc3ccc(OC)cc23)cc1 [LY456236]
Affinity (pIC50) (mGluR1 [3]): 6.9 pIC50

Cc1nc(C#Cc2cccc(C#N)c2)cs1 [MTEB]
Affinity (pIC50) (mGluR5 [4]): 8.7 pIC50

O=C(NC12CC3CC(CC(C3)C1)C2)c1cnc2ccccc2n1 [NPS2390]
Affinity (pKi) (mGluR1 [1]): 8.9 pKi

O=C(Cc1ccccc1)c1ccc2nc3c(cc2c1)CCCO3 [R214127]
Affinity (pKi) (mGluR1 [1]): 8.9 pKi
Affinity (pIC50) (mGluR1 [3]): 8.9 pIC50

CCOC(=O)NC(=O)C(c1ccccc1)c1ccccc1 [Ro01-6128]
Affinity (pKi) (mGluR1 [1]): 7.5-7.7 pKi

Cc1ccc(S(=O)(=O)N2CCC[C@H]2c2ccc(F)cc2)cc1 [Ro67-7476]
Affinity (pKi) (mGluR1 [1]): 7.5-7.9 pKi

CCCCOC(=O)NC(=O)C1c2ccccc2Oc2ccccc21 [Ro 67-4853, (9H-xanthene-9-carbonyl) carbamic acid butyl ester]
Max. Res. to Ro 67-4853 (WT mGluR1α; [Ca^2+]o 0.5 mM): 50 ± 8
EC50 (WT mGluR1α; [Ca^2+]o 0.5 mM, pre-incubated with 0.5 mM Ca^2+ and 5 nM Ro 67-4853): 20.7 nM
Max. Res. to Ro 67-4853 (WT mGluR1α; [Ca^2+]o 1.8 mM): 59 ± 4
EC50 (WT mGluR1α; [Ca^2+]o 1.8 mM): 10 nM
Affinity (pKi) (mGluR1 [1]): 5.1 pKi
Stimulation of mGluR5 (intracellular Ca^2+ oscillation) (mGluR5 [5]; 0.5 mM Ca^2+, 5 nM): could lead to the stimulation of mGluR5; also recorded: caused high frequency Ca^2+ oscillation
Stimulation of mGluR5 (intracellular Ca^2+ response) (mGluR5 [5]; no Ca^2+ in the bath solution, 5 to 100 nM): no intracellular Ca^2+ response was observed; also recorded: could not stimulate mGluR5

Cc1ccc(O)c(N=Nc2ccccc2)n1 [SIB-1757]
Affinity (pIC50) (mGluR5 [4]): 6.0-6.4 pIC50

Cc1cccc(/C=C/c2ccccc2)n1 [SIB-1893]
Affinity (pIC50) (mGluR5 [4]): 5.9-6.5 pIC50

O=C(Nc1cc(-c2ccccc2)nn1-c1ccccc1F)c1ccc([N+](=O)[O-])cc1 [VU-1545]
Affinity (pEC50) (mGluR5 [4]): 8 pEC50

Cc1c(C(=O)N(C)C2CCCCC2)sc2nc3ccc(N)cc3n12 [YM298198]
Affinity (pIC50) (mGluR1 [1]): 7.8 pIC50

CN1CC(=O)NC1=NC(=O)Nc1cccc(Cl)c1 [fenobam]
Affinity (pIC50) (mGluR5 [4]): 7.2 pIC50

N[C@H](C(=O)O)c1cc(O)no1 [ibotenate]
Affinity (pKi) (mGluR1 [1]): 5.9-6.4 pKi
Affinity (pIC50) (mGluR5 [2]): 5.7 pIC50
